The values that follow are results of earlier work, collected in patent US20050009897A1, “Method of treatment” (priority 2001, published 2005).

The conditions of data set [1]: 45 hypertensive diabetic patients, cited from earlier work.
The conditions of data set [2]: hypertensive patients; cited from earlier work.
For data set [3] the following is noted: nondiabetic hypertensive individuals; cited from earlier work.
The conditions of data set [4]: compared with other β-blockers, angiotensin converting enzyme inhibitors or calcium channel blockers; cited from earlier work.

Where two headings read alike, the source gives them in different places.

`CC(C)NCC(O)COc1ccc(CC(N)=O)cc1` (stereo not shown) [atenolol]: in data set [1], the fasting glucose entry is recorded as “increased”, the fasting insulin result was “increased”, the glucose disposal result is on record as “decreased” and the insulin sensitivity entry is reported as “decreased”. Besides, the lipid peroxidation entry in data set [1] was “no effect”. The antihypertensive effect entry in data set [1] (relative to carvedilol) is on record as “equivalent”. For the same compound, the glycemic control result in data set [2] is “significantly reduce”.

Consider `CC(C)NCC(O)COc1cccc2ccccc12` (stereo not shown) [propranolol], for which, in data set [2], the glycemic control entry is reported as “significantly reduce”.

In the case of `COc1ccccc1OCCNCC(O)COc1cccc2[nH]c3ccccc3c12` (stereo not shown) [carvedilol], in data set [1], the HbA1c entry is reported as “decreased”, the fasting glucose entry is listed as “decreased”, the fasting insulin result was “decreased” and the glucose disposal result was “increased”. In addition, in data set [1], the insulin sensitivity result is “increased” and the lipid peroxidation entry is “decreased”. Further, the insulin sensitivity result in data set [3] is on record as “increases”. Moreover, the lowering blood pressure result in data set [4] was “as effective as other β-blockers, angiotensin converting enzyme inhibitors or calcium channel blockers”.
